Consider seven compounds from patent publication US20140066365A1, “USE OF CALIXARENES ASSOCIATED WITH AN ANTIBIOTIC IN THE TREATMENT OF BACTERIAL INFECTIONS” (priority 2011, published 2014).

What all share (assay type): cell-based
Test [1] has as its system EcR1: Penicillinase-Producing Escherichia coli without Associated Resistance. Kind of test: Antibiogram by the disk diffusion technique. As to conditions: for Diameter: EcR1, disk diffusion; for Diameter / Results: Table A1; for Results: EcR1, interpretation of the diameter against Dmin Dmax. Here is the method: (§1) 5.1 EcR1: Penicillinase-Producing Escherichia coli without Associated Resistance The bacterial and antibiogramidentification is carried out by the VITEK 2 system (bioMérieux) and by the disk diffusion technique.
For orientation: A growth-free zone around the sample is the usual read-out of agar diffusion tests.

Test [2] relates to SaR1: Meticillin-Resistant Staphylococcus aureus without Associated Resistance. In words: Antibiogram, inhibition diameter (Table D1). Here is the method:
(§2) The bacterial and antibiogramidentification is carried out by the VITEK 2 system (bioMérieux)

The subject of test [3] is SaR4: Meticillin-Resistant Staphylococcus aureus. Kind of test: Antibiogram, MIC by the VITEK 2 system. The settings on record: SaR4. The procedure: (§3) The bacterial and antibiogramidentification is carried out by the VITEK 2 system (bioMérieux) and by the disk diffusion technique
Test [4] concerns EcR3: ESBL-Producing Escherichia coli. In words: Antibiogram by the disk diffusion technique. As to conditions: for Diameter: Table C1; for diameter in mm: Table C2; for CA-SFM Interpretation: Cd CA-SFM 2011; for CLSI Interpretation: Cd CLSI 2011; for EUCAST Interpretation: Cd EUCAST 2011; for Results: Table C1, against Dmin Dmax. Here is the method:
The bacterial and antibiogramidentification is carried out by the VITEK 2 system (bioMerieux) and by the disk diffusion technique

Test [5] deals with PaR5: Pseudomonas aeruginosa. In words: Antibiogram by the disk diffusion technique. As to conditions: for diameter in mm: disk diffusion inhibition diameter, strain PaR5. The procedure:
as §3

Test [6] relates to SaR3: Meticillin-Resistant Staphylococcus aureus. In words: Antibiogram by the disk diffusion technique. As to conditions: for Diameter: Table E1; for diameter in mm: Table E2. Here is the method:
as §3

Test [7] deals with PaR2: Pseudomonas aeruginosa. As to conditions: for Diameter: Table G1; for diameter in mm: Table G2. The procedure: as §3
Test [8] relates to SaR1: Meticillin-Resistant Staphylococcus aureus without Associated Resistance. Kind of test: Antibiogram, MIC by the VITEK 2 system. As to conditions: SaR1. Here is the method:
as §2

Test [9] concerns PaR3: Pseudomonas aeruginosa. Kind of test: Antibiogram, MIC by the VITEK 2 system. The procedure: as §2
The subject of test [10] is SaR4: Meticillin-Resistant Staphylococcus aureus. In words: Antibiogram by the disk diffusion technique. Here is the method: as §3
The test system of test [11] is ESBL-producing strain of Escherichia coli, having an associated resistance to the aminoglycosides (EcR3). Kind of test: MIC of the compounds used alone, microdilution in a liquid medium (CLSI). The settings on record: Escherichia coli, antibiotic alone (second value of cell), read-out: Initial MICs. The text has this:
(§4) The MICs of the antibiotics were previously defined for each strain, by the method of microdilution in a liquid medium (CLSI (Clinical and Laboratory Standards Institute), 2003).

For test [12], the system named is Escherichia coli strain ATCC 25922 (wild type). Described as above. As to conditions: Escherichia coli, ATCC25922; antibiotic alone (second value of cell); E. coli ATCC 25922; read-out: Initial MICs.
Description: as §4

In test [13] the test system is penicillinase-producing strain of Escherichia coli without associated resistance (EcR1). Described as above. As to conditions: Escherichia coli, antibiotic alone (second value of cell), read-out: Initial MICs.
Description: as §4

The test system of test [14] is cephalosporinase-hyperproducing strain of Escherichia coli (EcR2). The test is described as above. The settings on record: Escherichia coli, antibiotic alone (second value of cell), read-out: Initial MICs.
Description: as §4

Test [15] concerns EcR1: Penicillinase-Producing Escherichia coli without Associated Resistance. Kind of test: Antibiogram, MIC by the VITEK 2 system. The settings on record: for CA-SFM Interpretation: EcR1, MIC against Cc CA-SFM 2011; for CLSI Interpretation: EcR1, MIC against Cc CLSI 2011; for EUCAST Interpretation: EcR1, MIC against Cc EUCAST 2011; for Results: EcR1, interpretation of the MIC, Table A1; for MIC: Escherichia coli. The procedure: as §1

Test [16] concerns EcR2: Cephalosporinase-Hyperproducing Strain of Escherichia coli. Kind of test: Antibiogram, MIC by the VITEK 1 system. The settings on record: for MIC: Escherichia coli, read-out: MIC. The procedure:
The bacterial and antibiogramidentification is carried out by the VITEK 1 system (bioMérieux) and by the disk diffusion technique

Setting [17] is: Staphylococcus aureus, Table F1, read-out: MIC.
Setting [18] is: Staphylococcus aureus, Table F2, MIC, read-out: MIC.
The mark [19] stands for this setting: Staphylococcus aureus, Table D1, read-out: MIC.
The mark [20] stands for this setting: Pseudomonas aeruginosa, Table H2, read-out: MIC.
Setting [21] is: EcR1, Table A2, read-out: MIC mg/L (diameter in mm).
Setting [22] is: EcR1, VITEK 2, Table A1, read-out: MIC.

Converted amounts (≈) assume the structure as drawn. Read-outs that look alike come from different tables or passages of the source.

As to `CN(C)c1ccc(O)c2c1C[C@H]1C[C@H]3[C@H](N(C)C)C(O)=C(C(N)=O)C(=O)[C@@]3(O)C(O)=C1C2=O` [Minocycline], the “MIC mg/L (diameter in mm)” value in test [1] (EcR1, cells that print a diameter, Table A2) is 20 mm. Moreover, the Diameter in [1] came to 20 mm; in test [2], 27 mm; in [4] it was 21 mm; in test [5] (PaR5, Table I1) it was 11 mm; in test [6], 26 mm; in test [7], 6 mm. Also, the MIC in test [3] (setting [17]) is not above 4 µg/mL; in test [3] (setting [18]) it was not above 0.5 µg/mL; in test [8] (setting [19]), not above 0.5 µg/mL; in test [9] (setting [20]), 4 µg/mL (≈ 8.74 µM); in [9] (Table H1), 4 µg/mL (≈ 8.74 µM). The diameter in mm in test [4] stood at 21 mm; in test [5] it was 11 mm; in [6], 26 mm; in [7], 6 mm. Besides, the “MIC mg/L” value in test [8] (Table D2) was “≦0.5 mg/L”.

For `NC[C@H]1O[C@H](O[C@H]2[C@H](O)[C@@H](O[C@H]3O[C@H](CO)[C@@H](O)[C@H](N)[C@H]3O)[C@H](N)C[C@@H]2N)[C@H](O)[C@@H](O)[C@@H]1O` [Kanamycin], the Diameter in test [2] turned out to be 20 mm; in [10] (Table F1), 7; in test [10] (Table F2, diameters), 7 mm; in [6], 6 mm. The diameter in mm in test [6] came to 6 mm. Besides, in [8] (Table D2), the “MIC mg/L” value is on record as “≦4 mg/L”. In addition, the MIC in test [8] (setting [19]) was not above 4 µg/mL.

Take `C[C@@H](O)[C@H]1C(=O)N2C(C(=O)O)=C(S[C@@H]3CN[C@H](C(=O)Nc4cccc(C(=O)O)c4)C3)[C@H](C)[C@H]12` [Ertapenem]: the MIC in test [11] was determined as 0.0015 µg/mL; in test [12] it was 0.015 µg/mL; in test [13], 0.015 µg/mL; in test [14], 0.03 µg/mL.

Take `CCN1CCN(C(=O)N[C@@H](C(=O)N[C@@H]2C(=O)N3[C@@H]2SC(C)(C)[C@@H]3C(=O)O)c2ccccc2)C(=O)C1=O` [Piperacillin]: the Diameter in [1] turned out to be 17 mm; in test [4], 13 mm; in test [5] (PaR5, Table I1), 33 mm; in test [7] it was 22 mm. Also, the Results entry is recorded as “Intermediate” in [1]; “Susceptible” in test [15]; “Intermediate” in test [4]; “Susceptible” in test [5] (PaR5, Table I1, against Dmin-Dmax); “Susceptible” in test [7] (Table G1, against Dmin-Dmax); “Resistant” in [9] (Table H1). Besides, the “CA-SFM Interpretation” value was “Susceptible” in test [15]; “Resistant” in [4]; “Susceptible” in [5] (disk diffusion, PaR5, versus critical diameter CA-SFM 2011); “Susceptible” in test [7] (Cd CA-SFM 2011); “Resistant” in [9] (Cc CA-SFM 2011). The “CLSI Interpretation” value is “Susceptible” in [15]; “Resistant” in test [4]; “Susceptible” in test [5] (disk diffusion, PaR5, versus critical diameter CLSI 2011); “Susceptible” in test [7] (Cd CLSI 2011); “Resistant” in test [9] (Cc CLSI 2011). Moreover, the “EUCAST Interpretation” value is given as “Susceptible” in test [15]; “Resistant” in [4]; “Susceptible” in test [5] (disk diffusion, PaR5, versus critical diameter EUCAST 2011, for ** antibiotics the disk load differs and the EUCAST interpretation is not applicable); “Susceptible” in [7] (Cd EUCAST 2011); “Resistant” in test [9] (Cc EUCAST 2011). The MIC was not above 8 mg/L in test [15] (setting [21]); not above 8 mg/L in [15] (setting [22]); 128 µg/mL in test [11]; 2 µg/mL in test [12]; 256 µg/mL in test [13]; 32 µg/mL in test [14]. Also, the MIC was not below 128 µg/mL in test [9] (setting [20]) and “≧128” in test [9] (Table H1). Also, the diameter in mm was found to be 13 mm in test [4], 33 mm in test [5] and 22 mm in [7].

Take Pristinamycin: the Diameter in [2] came out at 25 mm; in test [6], 23 mm. The Results result is “Susceptible” in test [2] (from diameter, against Dmin Dmax); “Susceptible” in test [3] (Table F1, MIC); “Susceptible” in [6] (Table E1, against Dmin Dmax); “Susceptible” in [8] (Table D1, from MIC). Besides, the “MIC mg/L” value in test [3] (Table F1) is recorded as “≦2 mg/L”; in [8] (Table D1) it was “≦0.5 mg/L”; in [8] (Table D2) it was “≦0.5 mg/L”. Further, in test [3] (Table F2, MIC), the MIC result is reported as “≦2 mg/L”. Besides, the “CA-SFM Interpretation” value was “Susceptible” in test [3] (from MIC, Cc CA-SFM 2011); “Susceptible” in test [6] (Cd CA-SFM 2011); “Susceptible” in test [8] (Cc CA-SFM 2011). Also, the diameter in mm in test [6] stood at 23 mm.

For `CC1(C)S[C@@H]2[C@H](NC(=O)[C@H](N)c3ccc(O)cc3)C(=O)N2[C@H]1C(=O)O` [Amoxicillin], the Diameter in [1] and in [4] was 6 mm in each case. Further, the Results entry in [1] is listed as “Resistant”; in test [15], “Resistant”; in test [16] (EcR2, Table B1), “Resistant”; in test [4] it was “Resistant”. For the same compound, the “CA-SFM Interpretation” value in test [15] was “Resistant”; in test [16] (EcR2, from MIC, Cc CA-SFM 2011), “Resistant”; in [4], “Resistant”. In addition, the “CLSI Interpretation” value in test [15] was “Resistant”; in test [16] (EcR2, from MIC, Cc CLSI 2011) it was “Resistant”; in test [4] it was “Resistant”. The “EUCAST Interpretation” value is given as “Resistant” in test [15]; “Resistant” in test [16] (EcR2, from MIC, Cc EUCAST 2011); “Resistant” in test [4]. In addition, the MIC is not below 32 mg/L in [15] (setting [21]); not below 32 mg/L in test [15] (setting [22]); not below 32 µg/mL in test [16] (EcR2, VITEK 1, Table B1); not below 32 µg/mL in [16] (EcR2, Table B2, MIC); more than 256 µg/mL in test [11]; 4 µg/mL in [12]. The MIC in [13] is more than 256 µg/mL; in test [14], 256 µg/mL. Further, the diameter in mm in [4] was 6 mm.

Turning to `CC1COc2c(N3CCN(C)CC3)c(F)cc3c(=O)c(C(=O)O)cn1c23` (stereo not shown) [Ofloxacin], the Diameter is 24 mm in test [2]; 11 mm in [5] (PaR5, Table I1); 6 mm in test [6]. In addition, the MIC is not above 0.25 mg/L in test [15] (setting [21]); not above 0.25 mg/L in [15] (setting [22]); not below 8 µg/mL in [3] (setting [17]); not below 8 µg/mL in [3] (setting [18]); 1 µg/mL (≈ 2.77 µM) in test [8] (Table D2); 1 µg/mL (≈ 2.77 µM) in [8] (setting [19]). The diameter in mm in test [6] is 6 mm.
